Where two headings read alike, the source gives them in different places.
System: Guinea-pig ileum muscle
Test: Antispasmodic activity: reduction of the acetylcholine contraction of isolated ileum in a gut bath
Format: cell-based
Experimental: Antispasmodic activity was determined using standard methodology. (d) Guinea-pig ileum muscle was suspended in a gut bath, in oxygenated Tyrode's solution at 37°. Doses of acetylcholine were added to the gut bath fluid, the contraction recorded, and the bath washed out with fresh Tyrode's solution. This was carried out repeatedly to establish a dose of acetylcholine to cause a sub-maximal response. This dose of acetylcholine was used repeatedly, on a 2 minute cycle to establish steady responses. Doses of antispasmodic were then added 30 seconds before the acetylcholine dose to establish the magnitude of reduction of the acetylcholine contraction.

SMILES | equivalent amount for antispasmodic activity [ng] | equivalent amount for antispasmodic activity (equi-active amounts of the amine hydrochloride and atropine sulphate, acetylcholine contraction, oxygenated Tyrode's solution at 37°) [ng] | antispasmodic activity times less than the standard (relative to atropine sulphate as standard, acetylcholine contraction, oxygenated Tyrode's solution at 37°, antispasmodic added 30 seconds before the acetylcholine dose)
CN1C2CCC1CC(OC(=O)C(CO)c1ccccc1)C2 (racemic) [atropine sulphate, reference compound] | 0.06 | – | –
CCN(CCCc1ccccc1)CCCc1ccc(O)cc1 [compound (II), N-ethyl, N-(3-phenylpropyl), 3-(4-hydroxyphenyl)-propylamine] | – | 1.5 | approximately 25 times

— EP0542837B1, “PROPYLAMINE DERIVATIVES” (NORGINE LIMITED, priority 1990, dated 1992)
